# Where “and” joins values, the source holds several entries; their conditions need not be identical. Equal entries are not always repeated.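 Dose response: 5 concentrations. Exposure: 48 h. Format: 96-well plates. Endpoint: linear interpolation; highest concentration if not reached. GI50 = concentration required for 50% inhibition of growth. TGI: concentration producing complete growth inhibition.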
# Assays:
# Test in all cases: NCI tumour cell line growth inhibition, 48 h
# NCI-H460 lung = test system: NCI-H460 lung
# SR leukemia = test system: SR leukemia
# MCF7 breast = test system: MCF7 breast
# OVCAR-8 ovarian = test system: OVCAR-8 ovarian
# UO-31 renal = test system: UO-31 renal
# NCI-H23 lung = test system: NCI-H23 lung
# P388/ADR leukemia = test system: P388/ADR leukemia
# A498 renal = test system: A498 renal
# K-562 leukemia = test system: K-562 leukemia
# SNB-19 CNS = test system: SNB-19 CNS
# ACHN renal = test system: ACHN renal
# A549 NSCLC = test system: A549 NSCLC
# DU-145 prostate = test system: DU-145 prostate
# CAKI-1 renal = test system: CAKI-1 renal
# SK-MEL-28 melanoma = test system: SK-MEL-28 melanoma
# HT29 colon = test system: HT29 colon
# SN12K1 renal = test system: SN12K1 renal
# P388 leukemia = test system: P388 leukemia
# SF-539 CNS = test system: SF-539 CNS
# OVCAR-5 ovarian = test system: OVCAR-5 ovarian
# HCC-2998 colon = test system: HCC-2998 colon
# 786-0 renal = test system: 786-0 renal
# DMS 273 small cell lung = test system: DMS 273 small cell lung
# TK-10 renal = test system: TK-10 renal
# MOLT-4 leukemia = test system: MOLT-4 leukemia
# BT-549 breast = test system: BT-549 breast
# DMS 114 small cell lung = test system: DMS 114 small cell lung
smiles,measurement,setting,value
O=c1[nH]c(=O)n(C2CC(O)C(CO)O2)cc1F (centres undefined),GI50,NCI-H460 lung,> 65.3 µM
same,TGI,NCI-H460 lung,> 100 µM and 526 µM
same,TGI,SR leukemia,> 100 µM and 750 µM
same,TGI,MCF7 breast,> 100 µM and 1940 µM and > 2500 µM
same,TGI,OVCAR-8 ovarian,> 100 µM and 2320 µM and > 2500 µM
same,TGI,UO-31 renal,> 100 µM and 130 µM
same,TGI,NCI-H23 lung,> 100 µM and 239 µM
same,TGI,P388/ADR leukemia,74.9 µM
same,TGI,A498 renal,> 100 µM and 84.7 µM
same,TGI,K-562 leukemia,> 100 µM and 1080 µM
same,TGI,SNB-19 CNS,> 100 µM and 1750 µM and > 2500 µM
same,GI50,ACHN renal,> 92.6 µM
same,TGI,ACHN renal,> 100 µM and 1670 µM
same,TGI,A549 NSCLC,> 100 µM and 1910 µM and > 2500 µM
same,TGI,DU-145 prostate,> 100 µM and > 1570 µM and 1820 µM
same,TGI,CAKI-1 renal,> 100 µM and 1100 µM and > 2500 µM
same,TGI,SK-MEL-28 melanoma,> 100 µM and 1730 µM and > 2500 µM
same,TGI,HT29 colon,> 100 µM and 2400 µM and > 2500 µM
same,TGI,SN12K1 renal,1250 µM
same,TGI,P388 leukemia,179 µM
same,GI50,SF-539 CNS,> 79.3 µM
same,TGI,OVCAR-5 ovarian,> 100 µM and 2330 µM and > 2500 µM
same,GI50,HCC-2998 colon,33.6 µM
same,TGI,786-0 renal,> 100 µM and 1790 µM and > 2500 µM
same,TGI,DMS 273 small cell lung,415 µM
same,TGI,TK-10 renal,> 100 µM and 1650 µM and > 2500 µM
same,TGI,MOLT-4 leukemia,> 100 µM and 1930 µM and > 2500 µM
same,TGI,BT-549 breast,> 100 µM and 1030 µM and > 869 µM
same,TGI,DMS 114 small cell lung,808 µM
